2 compounds from patent publication US20030104490A1, “Assay” (priority 2000, published 2003) can be followed below.

Test [1] relates to CHO-T cells expressing an IRAP-GFP construct. The test can be described thus: Insulin-induced translocation of IRAP-GFP (GLUT4 vesicles) to the plasma membrane, immunofluorescence, surface:total IRAP-GFP ratio. Type of test: cell-based. Particulars: unpermeabilised, anti-GFP staining vs GFP fluorescence, 200 nM insulin for 30 min, inhibitor (wortmannin) treatment preceding stimulation, 20 fields of view. The text has this: The IRAP-GFP construct used in this example was constructed using an IRAP fragment 66-533 (from the start site to the end of the extracellular ‘stalk’ region) which was generated by PCR using specific primers from a partial cDNA IRAP clone available to the inventors. The resulting fragment was cloned into the pcDNA3 vector using the flanking restriction enzyme sites. GFP3 with a C-terminal myc-tag was also generated by PCR using specific primers and the product cloned into pcDNA3 downstream of the IRAP insert.
CHO-T cells were transfected or microinjected with the IRAP-GFP construct and 24 h later were stimulated without or with 200 nM insulin for 30 min. This was preceded by treatment with an inhibitor (e.g. wortmannin) of insulin signalling.
Subsequently cells were fixed and stained with anti-GFP antibodies (Roche) without prior permeabilisation, as described below, in order to visualise GFP exposed on the surface of the plasma membrane only. […]
The total IRAP-GFP expression level is given by the level of GFP fluorescence (and this corresponds to the second detection method of the first aspect of the invention). […]
Fluorescence intensity due to IRAP-GFP fluorescence and surface IRAP-GFP immunostaining was then computed from cells imaged in 20 fields of view for each treatment condition. Results are expressed as an average ratio of surface:total IRAP-GFP.

Test [2] has as its system 3T3-L1 adipocytes microinjected with the IRAP-GFP construct. The test can be described thus: Insulin-induced translocation of GLUT4-containing vesicles (IRAP-GFP) to the plasma membrane in 3T3-L1 adipocytes, confocal microscopy. In kind it is cell-based. To be noted: serum-starved 2 hours, 100 nM insulin for 30 minutes. The method, then: 3T3-L1 fibroblasts (between passages 4 and 12) were seeded onto 22 mm glass coverslips and allowed to grow to confluence. Differentiation into adipocytes was induced in DMEM containing 10% (v/v) myoclone-plus FCS, 0.25 μM dexamethasone, 0.5 mM isobutylmethylxanthine and 166 nM insulin for 2 days (day 0 to day 2). This medium was replaced with DMEM containing 10% (v/v) myoclone-plus FCS and 166 nM insulin for a further 2 days (day 2 to day 4). From day 4 onwards cells were maintained in DMEM containing 10% (v/v) myoclone-plus FCS, replacing the medium every two days. 3T3-L1 adipocytes were used between day 7 and day 10 after initiation of differentiation.
Differentiated 3T3-L1 adipocytes were microinjected with the IRAP-GFP construct used in Example 1 (pcDNA3). […]
The total level of the IRAP-GFP expression is indicated by the level of GFP fluorescence detected (this corresponds to the second detection method of the first aspect of the invention). […] The fluorescence intensity due to IRAP-GFP fluorescence and surface IRAP-GFP immunostaining was computed for each individual cell, using Leica Confocal Software, and a background fluorescence figure subtracted. For each cell, the ratio of background corrected surface:total IRAP-GFP was calculated. […] Each data point represents the red:green fluorescence ratio for one cell.

Turning to `COC[C@H]1OC(=O)c2coc3c2[C@@]1(C)C1=C(C3=O)[C@@H]2CCC(=O)[C@@]2(C)C[C@H]1OC(C)=O` [Wortmannin, wortmannin, reference compound], the “MEAN R/G (average ratio of surface:total IRAP-GFP)” value in test [1] came out at 0.363.
As to insulin, the “translocation of IRAP-GFP to the plasma membrane (red:green ratio surface:total IRAP-GFP per cell, FIG. 4)” value in test [2] is recorded as “a significant proportion of cell undergo translocation”. Besides, in test [1], the “MEAN R/G (average ratio of surface:total IRAP-GFP)” value came out at 1.252.
